Laboratory results from the supplement of paper PMC10307832.

Columns and labels:
Assay in all cases: relative viability (nuclei count vs DMSO), 5 days (fraction); higher = more cells survive
QS11 + Lapatinib = compound: C1CC2=C(C1)C=C(C=C2)OC3=NC(=C4C(=N3)N(C=N4)CC5=CC=C(C=C5)C6=CC=CC=C6)N[C@@H](CC7=CC=CC=C7)CO [QS11] + CS(=O)(=O)CCNCc1ccc(-c2ccc3ncnc(Nc4ccc(OCc5cccc(F)c5)c(Cl)c4)c3c2)o1 [Lapatinib] (partner 2 µM)
Outline: (§1)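 Lung cancer cell lines, seeded in 1536-well plates, were treated the following day by pin tool with a single drug or with five library-drug doses (not always all listed) in √10 steps on top of a fixed anchor-drug dose. Cells were fixed and nuclei stained in one step after 5 days, and nuclei were counted. Relative viability is the nuclei count for treated wells divided by that for vehicle wells, reported as medians of duplicate plates.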

AZ628 + Trametinib = compound: CC1=C(C=C(C=C1)NC(=O)C2=CC(=CC=C2)C(C)(C)C#N)NC3=CC4=C(C=C3)N=CN(C4=O)C [AZ628] + CC(=O)Nc1cccc(-n2c(=O)n(C3CC3)c(=O)c3c(Nc4ccc(I)cc4F)n(C)c(=O)c(C)c32)c1 [Trametinib] (partner 0.02 µM)
Outline: as §1

AZ628 + Lapatinib = compound: CC1=C(C=C(C=C1)NC(=O)C2=CC(=CC=C2)C(C)(C)C#N)NC3=CC4=C(C=C3)N=CN(C4=O)C [AZ628] + CS(=O)(=O)CCNCc1ccc(-c2ccc3ncnc(Nc4ccc(OCc5cccc(F)c5)c(Cl)c4)c3c2)o1 [Lapatinib] (partner 2 µM)
Outline: as §1

AZ628 + Dasatinib = compound: CC1=C(C=C(C=C1)NC(=O)C2=CC(=CC=C2)C(C)(C)C#N)NC3=CC4=C(C=C3)N=CN(C4=O)C [AZ628] + Cc1nc(Nc2ncc(C(=O)Nc3c(C)cccc3Cl)s2)cc(N2CCN(CCO)CC2)n1 [Dasatinib] (partner 0.075 µM)
Outline: as §1

| Cell Line | relative viability (QS11 + Lapatinib; first compound 0.08 µM) | relative viability (QS11 + Lapatinib; first compound 0.253 µM) | relative viability (QS11 + Lapatinib; first compound 0.8 µM) | relative viability (QS11 + Lapatinib; first compound 2.53 µM) | relative viability (QS11 + Lapatinib; first compound 8 µM) | relative viability (AZ628 + Trametinib; first compound 0.08 µM) | relative viability (AZ628 + Trametinib; first compound 0.253 µM) | relative viability (AZ628 + Trametinib; first compound 0.8 µM) | relative viability (AZ628 + Trametinib; first compound 2.53 µM) | relative viability (AZ628 + Trametinib; first compound 8 µM) | relative viability (AZ628 + Lapatinib; first compound 0.08 µM) | relative viability (AZ628 + Lapatinib; first compound 0.253 µM) | relative viability (AZ628 + Lapatinib; first compound 0.8 µM) | relative viability (AZ628 + Lapatinib; first compound 2.53 µM) | relative viability (AZ628 + Lapatinib; first compound 8 µM) | relative viability (AZ628 + Dasatinib; first compound 0.08 µM) | relative viability (AZ628 + Dasatinib; first compound 0.253 µM) | relative viability (AZ628 + Dasatinib; first compound 0.8 µM) | relative viability (AZ628 + Dasatinib; first compound 2.53 µM) | relative viability (AZ628 + Dasatinib; first compound 8 µM) |
| --- | --- | --- | --- | --- | --- | --- | --- | --- | --- | --- | --- | --- | --- | --- | --- | --- | --- | --- | --- | --- |
| RERF-LC-KJ | 0.588 | 0.877 | 0.577 | 0.77 | 0.882 | 0.762 | 0.719 | 0.824 | 0.835 | 0.736 | 0.825 | 0.837 | 0.846 | 0.839 | 0.888 | 0.737 | 0.72 | 0.752 | 0.75 | 0.64 |
| SK-LU-1 | 0.704 | 0.868 | 0.963 | 0.803 | 0.838 | 0.325 | 0.323 | 0.257 | 0.248 | 0.248 | 0.498 | 0.705 | 0.755 | 0.834 | 0.603 | – | 0.179 | 0.231 | 0.208 | 0.22 |
| SK-MES-1 | 0.475 | 0.432 | 0.498 | 0.457 | 0.45 | 0.32 | 0.318 | 0.308 | 0.262 | 0.369 | 0.475 | 0.501 | 0.479 | 0.473 | 0.437 | 0.347 | 0.342 | 0.287 | 0.338 | 0.218 |
| SW 1573 | 1.02 | 1.14 | 1.1 | 1.05 | 1.2 | 0.443 | 0.346 | 0.334 | 0.3 | 0.329 | 0.997 | 0.964 | 0.283 | 0.884 | 0.874 | 0.535 | 0.422 | 0.381 | 0.434 | 0.302 |
| UMC-11 | 0.873 | 0.984 | 0.874 | 1.16 | 1.33 | 0.713 | 0.764 | 0.734 | 0.691 | 0.693 | 1.05 | 0.903 | 0.95 | 0.9 | 0.968 | 0.659 | 0.448 | 0.474 | 0.5 | 0.47 |
